In data set [1] the test system is Polyamine pools in L1210 cells. Particulars: 48 h of treatment, cited from earlier work.
The subject of the next data set is L1210 cells. The data set is described as follows: L1210 cell growth inhibition. The data set is classed as cell-based. Particulars: Mus musculus.
Data set [2] has as its system Polyamine pools in L1210 cells. The data set is described as follows: Effect on polyamine pools in L1210 cells. The data set is classed as cell-based. The following applies: 48 h of treatment.
For data set [3] the following is noted: mice, three weeks after a seven day schedule; cited from earlier work.

Here are results for 4 molecules from patent US7423182B2, “Aminated polyamines” (University of Florida, priority 2004, dated 2008).

Read-outs that look alike come from different tables or passages of the source.

Consider `FC(F)(F)CNCCCNCCCCNCCCNCC(F)(F)F` [FDESPM], for which, in data set [1] (100 µM), the PUT is on record as 100% of untreated controls, the SPD was 103% of untreated controls and the SPM is 108% of untreated controls.
Take `CCNCCCNCCC(N)CNCCCNCC` (stereo not shown) [6-NH2-DESPM, 6 amino-N^1,N^12-diethylspermine]: the IC50 (as a rule, the concentration that gives 50% inhibition) with L1210 cells (48 h, read-out: IC50 48 h) was 8 µM. Besides, in the data set on L1210 cells (96 h, read-out: IC50 96 h), the half-maximal inhibitory concentration (IC50) is 0.4 µM. For the same molecule, in data set [2] (10 µM), the PUT is given as 39 ± 9% of untreated controls, the SPD is 16 ± 3% of untreated controls and the SPM is 54 ± 11% of untreated controls. In addition, in data set [2] (50 µM), the PUT is recorded as 26 ± 1% of untreated controls, the SPD was 7 ± 0% of untreated controls and the SPM is recorded as 32 ± 1% of untreated controls.
As for `CCNCCCCNCCCCNCCCCNCC` [DEHSPM, Diethylhomospermine], in data set [3], the “drug administered remaining in the liver and kidney as drug or metabolites” value is recorded as 35%; the “drug remaining in the animal in the form of HSPM” value is listed as 90%.
As for `CCNCCCNCCCCNCCCNCC` [DESPM], in data set [1] (30 µM), the PUT is recorded as 0% of untreated controls, the SPD is 0% of untreated controls and the SPM is 12% of untreated controls. Besides, in data set [1] (150 µM), the PUT was 0% of untreated controls, the SPD was 0% of untreated controls and the SPM was 14% of untreated controls.
